# Experimental data as given in US20040171086A1, “Selective modulation of TLR-mediated biological activity” (3M Innovative Properties Company, priority 2003, published 2004).
# What was measured:
# [1] = target: T1, human TLR8 (Homo sapiens, UniProt Q9NR97); experiment: NFκB-luciferase reporter assay in HEK293 cells transfected with human TLR8 (HEK293-TLR8); assay type: cell-based; details: HEK293-TLR8, 10 μM IRM, 16 hours
# T1 construct: expressed in transfected cells; host or cells: HEK293 (ATCC CRL-1573), pIRES vector, G-418 selected
# T1 sequence (Q9NR97 27-1041): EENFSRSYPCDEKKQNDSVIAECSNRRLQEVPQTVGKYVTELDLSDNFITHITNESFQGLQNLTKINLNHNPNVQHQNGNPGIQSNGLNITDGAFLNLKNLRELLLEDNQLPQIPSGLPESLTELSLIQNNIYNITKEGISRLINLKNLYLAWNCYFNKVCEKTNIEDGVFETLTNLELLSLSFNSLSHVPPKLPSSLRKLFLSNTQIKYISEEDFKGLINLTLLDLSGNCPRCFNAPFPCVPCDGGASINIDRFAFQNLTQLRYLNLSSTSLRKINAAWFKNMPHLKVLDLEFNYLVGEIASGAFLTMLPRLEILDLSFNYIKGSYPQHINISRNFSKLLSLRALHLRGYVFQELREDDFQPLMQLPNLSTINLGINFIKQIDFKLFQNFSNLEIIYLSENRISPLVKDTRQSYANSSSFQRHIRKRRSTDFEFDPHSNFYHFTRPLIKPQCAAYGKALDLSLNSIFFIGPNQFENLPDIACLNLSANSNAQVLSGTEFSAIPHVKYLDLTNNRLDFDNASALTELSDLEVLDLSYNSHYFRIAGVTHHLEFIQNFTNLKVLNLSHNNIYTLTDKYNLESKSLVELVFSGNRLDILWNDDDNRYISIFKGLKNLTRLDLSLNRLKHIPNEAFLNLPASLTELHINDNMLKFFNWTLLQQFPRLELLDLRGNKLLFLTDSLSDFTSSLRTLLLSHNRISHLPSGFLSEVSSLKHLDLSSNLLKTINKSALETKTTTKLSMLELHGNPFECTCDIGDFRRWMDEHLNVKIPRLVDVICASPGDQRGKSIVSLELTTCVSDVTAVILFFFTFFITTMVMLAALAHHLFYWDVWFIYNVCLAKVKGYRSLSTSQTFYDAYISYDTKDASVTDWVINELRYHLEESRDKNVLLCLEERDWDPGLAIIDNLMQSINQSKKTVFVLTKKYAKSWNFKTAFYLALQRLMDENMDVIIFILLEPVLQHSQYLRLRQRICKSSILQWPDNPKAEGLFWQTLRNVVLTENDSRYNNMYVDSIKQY
# Protocol: (§1) A compound was identified as increasing cellular activity mediated through a given TLR if it induced at least a two-fold increase in NFκB-induced luciferase signal compared to the control.
# (§2) HEK293 medium was prepared from 90% Minimum Essential Medium (MEM) with 2 mM L-glutamine and Earle's Balanced Salt Solution (Invitrogen Corp., Rockville, Md.) adjusted to contain 1.5 g/L sodium bicarbonate, 0.1 mM non-essential amino acids, and 1.0 mM sodium pyruvate; 10% heat-inactivated fetal calf serum. HEK293 cells were cultured by incubating cells in HEK293 medium overnight at 37° C., 8% CO2.
# (§3) The cells were co-transfected with (1) pIRES (BD Biosciences Clontech, Palo Alto, Calif.) either (a) unmodified (HEK293-vector), (b) containing an expressible human TLR7 gene (HEK293-TLR7), or (c) containing an expressible human TLR8 gene (HEK293-TLR8), and (2) NFκB-luc reporter (Stratagene, La Jolla, Calif.) in a 10:1 ratio with Fugene 6 transfection reagent (Roche Diagnostics Corp., Indianapolis, Ind.) following the manufacturer's instructions.
# (§4) The cells were stimulated with 1 μL of IRM compounds at 1 mM in DMSO (final IRM concentration of 10 μM) or 1 μL DMSO as a control. The plates were then incubated an additional 16 hours at 37° C., 5% CO2. The luciferase signal was read using the LucLite kit (Packard Instrument Co., Meriden, Conn.). Luminescence was measured on an LMAX luminometer (Molecular Devices Corp., Sunnyvale, Calif.).
# [2] = target: T2, TLR7 (Homo sapiens, UniProt Q9NYK1); experiment: NFκB-luciferase reporter assay in HEK293 cells transfected with human TLR7 (HEK293-TLR7); assay type: cell-based; parameters: expressed in transfected cells; host or cells: HEK293 (ATCC CRL-1573), pIRES vector, G-418 selected; details: HEK293-TLR7, 10 μM IRM, 16 hours
# T2 sequence (Q9NYK1 27-1049): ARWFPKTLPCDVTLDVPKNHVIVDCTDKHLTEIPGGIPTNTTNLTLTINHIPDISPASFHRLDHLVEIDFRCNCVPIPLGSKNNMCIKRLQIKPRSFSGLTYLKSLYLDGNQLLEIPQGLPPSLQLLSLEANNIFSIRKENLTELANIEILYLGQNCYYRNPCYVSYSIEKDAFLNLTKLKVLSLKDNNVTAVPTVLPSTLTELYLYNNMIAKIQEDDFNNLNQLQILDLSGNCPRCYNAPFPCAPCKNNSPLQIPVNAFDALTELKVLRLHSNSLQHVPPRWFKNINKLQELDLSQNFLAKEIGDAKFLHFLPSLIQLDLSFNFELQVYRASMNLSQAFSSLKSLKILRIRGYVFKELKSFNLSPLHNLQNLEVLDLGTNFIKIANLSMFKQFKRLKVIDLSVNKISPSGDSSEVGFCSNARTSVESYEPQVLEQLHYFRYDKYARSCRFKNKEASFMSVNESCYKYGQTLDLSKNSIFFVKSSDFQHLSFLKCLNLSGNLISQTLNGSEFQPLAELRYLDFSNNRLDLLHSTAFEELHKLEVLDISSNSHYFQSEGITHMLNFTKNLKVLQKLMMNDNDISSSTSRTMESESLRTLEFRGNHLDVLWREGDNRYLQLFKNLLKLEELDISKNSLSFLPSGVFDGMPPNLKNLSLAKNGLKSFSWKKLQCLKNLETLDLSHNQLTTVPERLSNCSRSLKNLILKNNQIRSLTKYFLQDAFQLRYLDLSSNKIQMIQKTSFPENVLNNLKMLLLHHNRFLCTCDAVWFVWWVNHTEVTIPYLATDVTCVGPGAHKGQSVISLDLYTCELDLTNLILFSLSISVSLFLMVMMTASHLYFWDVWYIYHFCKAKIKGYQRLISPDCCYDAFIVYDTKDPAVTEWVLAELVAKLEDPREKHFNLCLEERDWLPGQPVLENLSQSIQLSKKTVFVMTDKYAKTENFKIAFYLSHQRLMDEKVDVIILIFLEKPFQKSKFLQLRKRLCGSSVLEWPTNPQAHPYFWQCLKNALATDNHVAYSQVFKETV
# Protocol: as §1, §2, §3, §4
Structure (SMILES),TLR8: fold increase of NFκB-induced luciferase signal compared to a DMSO control [1] [fold increase],TLR7: fold increase of NFκB-induced luciferase signal compared to a DMSO control [2] [fold increase]
"Cc1nc2c(N)nc3ccccc3c2n1CCOCc1ccccc1 [IRM4, 1-[2-(benzyloxy)ethyl]-2-methyl-1H-imidazo[4,5-c]quinolin-4-amine]",1.06,4.98
"CCCCc1nc2c(N)nc3cccnc3c2n1CCNC(=O)C(N)CC(C)C (stereo not drawn) [IRM10, N^1-[2-(4-amino-2-butyl-1H-imidazo[4,5-c][1,5]naphthyridin-1-yl)ethyl]-2-amino-4-methylpentanamide]",9.24,0.64
"Nc1nc2ccccc2c2c1ncn2CCCCNC(=O)c1ccccc1Oc1ccccc1 [IRM11, N^1-[4-(4-amino-1H-imidazo[4,5-c]quinolin-1-yl)butyl]-2-phenoxybenzamide]",10.69,1.44
"CCOCc1nc2c(N)nc3ccccc3c2n1CCNC(=O)Nc1cccc(C#N)c1 [IRM15, N-{2-[4-amino-2-(ethoxymethyl)-1H-imidazo[4,5-c]quinolin-1-yl]ethyl}-N′-(3-cyanophenyl)urea]",5.52,0.92
"COCCc1nc2c(N)nc3ccccc3c2n1CC(C)(C)O [IRM17, 4-amino-α,α-dimethyl-2-methoxyethyl-1H-imidazo[4,5-c]quinoline-1-ethanol]",10.18,2.53
"CCCCc1nc2c(N)nc(C)c(C)c2n1CC(C)(C)O [IRM18, 4-amino-2-butyl-α,α,6,7-tetramethyl-1H-imidazo[4,5-c]pyridine-1-ethanol]",2.77,5.06

# Now from value to compound:
TLR8: fold increase of NFκB-induced luciferase signal compared to a DMSO control [1] [fold increase],TLR7: fold increase of NFκB-induced luciferase signal compared to a DMSO control [2] [fold increase],Structure (SMILES)
0.91,4.16,"Cc1nc2c(N)nc3ccccc3c2n1CCOCCCc1cccnc1 [IRM2, 2-methyl-1-[2-(3-pyridin-3-ylpropoxy)ethyl]-1H-imidazo[4,5-c]quinolin-4-amine]"
0.94,3.38,"COCCc1nc2c(N)nc3ccccc3c2n1CCCCCCCCNC(=O)Nc1ccccc1 [IRM5, N-{8-[4-amino-2-(2-methoxyethyl)-1H-imidazo[4,5-c]quinolin-1-yl]octyl}-N′-phenylurea]"
0.86,6.22,"COCCc1nc2c(N)nc3ccccc3c2n1CCCNS(=O)(=O)c1ccc(C)cc1 [IRM7, N-{3-[4-amino-2-(2-methoxyethyl)-1H-imidazo[4,5-c]quinolin-1-yl]propyl}-4-methylbenzenesulfonamide]"
8.84,1.16,"CCCCc1nc2c(N)nc3ccccc3c2n1CCNS(=O)(=O)CCC [IRM12, N^1-[2-(4-amino-2-butyl-1H-imidazo[4,5-c]quinolin-1-yl)ethyl]-1-propanesulfonamide]"
6.25,0.86,"CCc1nc2c(N)nc3ccccc3c2n1CCOCCNC(=O)Nc1ccccc1 [IRM13, N-{2-[2-(4-amino-2-ethyl-1H-imidazo[4,5-c]quinolin-1-yl)ethoxy]ethyl}-N′-phenylurea]"
6.04,4.22,"CCc1nc2c(N)nc3ccccc3c2n1CCCCS(=O)(=O)c1cc(Cl)cc(Cl)c1 [IRM20, 1-{4-[(3,5-dichlorophenyl)sulfonyl]butyl}-2-ethyl-1H-imidazo[4,5-c]quinolin-4-amine]"
